2 compounds from patent publication US20230265151A1, “GIP/GLP1 CO-AGONIST COMPOUNDS” (priority 2020, published 2023) can be followed below.

Holding throughout (format): cell-based
In experiment [1] the target is T1, hGIPR (Homo sapiens, UniProt P48546).
T1 construct: expressed in transfected cells
T1 sequence (P48546 22-466): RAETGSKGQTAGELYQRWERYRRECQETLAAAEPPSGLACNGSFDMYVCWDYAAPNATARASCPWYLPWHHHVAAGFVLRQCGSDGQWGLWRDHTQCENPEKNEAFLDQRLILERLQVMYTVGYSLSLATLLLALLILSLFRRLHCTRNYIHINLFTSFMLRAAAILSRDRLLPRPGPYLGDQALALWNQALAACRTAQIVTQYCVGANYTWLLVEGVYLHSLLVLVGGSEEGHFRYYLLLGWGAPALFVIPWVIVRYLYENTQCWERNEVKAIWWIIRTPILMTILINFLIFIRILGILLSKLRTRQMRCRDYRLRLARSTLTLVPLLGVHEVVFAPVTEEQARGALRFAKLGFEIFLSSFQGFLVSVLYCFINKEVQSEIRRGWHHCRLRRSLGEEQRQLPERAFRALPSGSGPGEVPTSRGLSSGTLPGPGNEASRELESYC
Put plainly: Functional cAMP formation (HTRF) in HEK-293 clonal cells expressing hGIPR, 0.1% bovine casein, without or with 1.0% human serum albumin. Particulars: for EC50: hGIPR EC50, nM (SEM, n), cAMP. In outline: (§1)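 Cells were stimulated with peptide for 30 min at 37° C, then lysed in buffer carrying cAMP-d2 and anti-cAMP Eu3+-cryptate for a competitive HTRF read after at least 60 min at room temperature. The 665/620 nm ratio was converted to nM cAMP against a standard curve.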
For orientation: Changes in cAMP serve as a functional read-out for many G protein-coupled receptors.

Experiment [2] deals with T2, hGCGR (Homo sapiens, UniProt P47871).
T2 construct: expressed in transfected cells
T2 sequence (P47871 26-477): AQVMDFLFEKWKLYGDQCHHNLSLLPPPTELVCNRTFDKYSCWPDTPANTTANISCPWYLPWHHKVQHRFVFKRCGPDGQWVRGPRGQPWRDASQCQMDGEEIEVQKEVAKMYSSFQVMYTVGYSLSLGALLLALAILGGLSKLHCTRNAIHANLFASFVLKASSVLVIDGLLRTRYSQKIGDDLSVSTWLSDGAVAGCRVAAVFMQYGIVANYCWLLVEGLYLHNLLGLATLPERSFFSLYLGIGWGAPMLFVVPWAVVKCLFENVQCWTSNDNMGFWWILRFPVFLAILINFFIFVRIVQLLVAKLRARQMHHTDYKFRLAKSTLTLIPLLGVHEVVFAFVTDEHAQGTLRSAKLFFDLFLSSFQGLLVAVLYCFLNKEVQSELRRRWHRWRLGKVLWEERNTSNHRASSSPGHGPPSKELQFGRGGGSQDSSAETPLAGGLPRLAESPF
Put plainly: Functional cAMP formation (HTRF) in HEK-293 clonal cells expressing hGCGR, 0.1% bovine casein, without or with 1.0% human serum albumin. Particulars: hGCGR EC50, nM (SEM, n), cAMP. In outline: as §1

In experiment [3] the target is hGLP-1R (Homo sapiens, UniProt P43220). As to the kind of experiment: Functional cAMP formation (HTRF) in HEK-293 clonal cells expressing hGLP-1R, 0.1% bovine casein, without or with 1.0% human serum albumin. Also on record: expressed in transfected cells. The settings on record: hGLP-1R EC50, nM (SEM, n), cAMP, 0.1% bovine casein (no human serum albumin), geometric mean. The essentials:
as §1

Where [4] appears, read: 37° C., 0.1% bovine casein (no human serum albumin), geometric mean.
[5] abbreviates: 37° C., 0.1% bovine casein and 1.0% human serum albumin, geometric mean (SEM, n).
Where [6] appears, read: incubated at 37° C., 0.1% bovine casein (no human serum albumin), geometric mean.

Read-outs that look alike come from different tables or passages of the source.

Chain of hGLP-1R (P43220 24-463): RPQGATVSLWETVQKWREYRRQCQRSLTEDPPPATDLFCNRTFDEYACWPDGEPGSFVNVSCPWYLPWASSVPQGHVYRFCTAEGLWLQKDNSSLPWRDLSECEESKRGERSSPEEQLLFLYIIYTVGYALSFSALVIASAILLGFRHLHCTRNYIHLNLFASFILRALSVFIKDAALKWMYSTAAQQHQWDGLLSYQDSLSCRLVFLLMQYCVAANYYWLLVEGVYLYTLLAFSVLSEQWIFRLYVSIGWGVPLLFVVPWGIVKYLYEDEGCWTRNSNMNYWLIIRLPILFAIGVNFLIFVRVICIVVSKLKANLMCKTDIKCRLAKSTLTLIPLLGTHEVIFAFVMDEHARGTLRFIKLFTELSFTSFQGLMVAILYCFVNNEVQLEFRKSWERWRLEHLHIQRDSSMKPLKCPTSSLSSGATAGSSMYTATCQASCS

In the case of `CC[C@H](C)[C@H](NC(=O)[C@H](CC(C)C)NC(=O)[C@](C)(Cc1ccc(O)cc1)NC(=O)[C@@H](CCC(=O)O)NC(=O)[C@@H](NC(=O)[C@H](Cc1ccccc1)NC(=O)[C@H](CCC(=O)O)NC(=O)C(C)(C)NC(=O)[C@H](CCC(N)=O)NC(=O)[C@H](C)NC(=O)[C@H](CCCCNC(=O)COCCOCCNC(=O)CC[C@H](NC(=O)CCCCCCCCCOc1ccc(C(=O)O)cc1)C(=O)O)NC(=O)[C@H](CCCN)NC(=O)[C@H](CC(=O)O)NC(=O)[C@H](CC(C)C)NC(=O)[C@](C)(CC(C)C)NC(=O)[C@@H](NC(=O)C(C)(C)NC(=O)[C@@H](NC(=O)[C@H](CC(=O)O)NC(=O)[C@H](CO)NC(=O)[C@@H](NC(=O)[C@](C)(Cc1ccccc1F)NC(=O)[C@@H](NC(=O)CNC(=O)[C@H](CCC(=O)O)NC(=O)C(C)(C)NC(=O)[C@@H](N)Cc1ccc(O)cc1)[C@@H](C)O)[C@@H](C)O)C(C)C)[C@@H](C)CC)[C@@H](C)CC)C(=O)N[C@@H](CCCCNC(=O)COCCOCCNC(=O)CC[C@H](NC(=O)CCCCCCCCCOc1ccc(C(=O)O)cc1)C(=O)O)C(=O)NCC(=O)NCC(=O)N1CCC[C@H]1C(=O)N[C@@H](CO)C(=O)N[C@@H](CO)C(=O)NCC(=O)N[C@@H](C)C(=O)N1CCC[C@H]1C(=O)N1CCC[C@H]1C(=O)N1CCC[C@H]1C(=O)N[C@@H](CO)C(N)=O` [Example 379], the Emax – broadly, the greatest response seen or fitted, relative to the assay's reference – in experiment [1] (HEK293, read-out: hGIPR Emax, % ± SEM, cAMP, 37° C., 0.1% bovine casein and 1.0% human serum albumin, percent of maximal response to GIP(1-42)NH2) came out at 90%; in experiment [1] (HEK293, read-out: hGIPR Emax, % ± SEM, cAMP, 37° C., 0.1% bovine casein, percent of maximal response to GIP(1-42)NH2, arithmetic mean) it was 97.5%. In addition, the EC50 (as a rule, the midpoint of the concentration-response curve) in experiment [1] (setting [4]) was 0.0167 nM; in experiment [1] (setting [5]), 11.6 nM; in experiment [2] (setting [4]), above 9950 nM; in experiment [2] (setting [5]), above 9950 nM; in experiment [3] (37° C.), 0.171 nM.

In the case of `CC[C@H](C)[C@H](NC(=O)[C@H](CC(C)C)NC(=O)[C@](C)(Cc1ccc(O)cc1)NC(=O)[C@H](CCCCNC(=O)COCCOCCNC(=O)COCCOCCNC(=O)CC[C@H](NC(=O)CCCc1ccc(C(C)(C)C)cc1)C(=O)O)NC(=O)[C@@H](NC(=O)[C@H](Cc1ccccc1)NC(=O)[C@H](CCC(=O)O)NC(=O)C(C)(C)NC(=O)[C@H](CCC(N)=O)NC(=O)[C@H](C)NC(=O)[C@H](CCCCNC(=O)COCCOCCNC(=O)COCCOCCNC(=O)CC[C@H](NC(=O)CCCc1ccc(C(C)(C)C)cc1)C(=O)O)NC(=O)[C@H](CCCN)NC(=O)[C@H](CC(=O)O)NC(=O)[C@H](CC(C)C)NC(=O)[C@](C)(CC(C)C)NC(=O)[C@@H](NC(=O)[C@H](CO)NC(=O)[C@H](Cc1ccncc1)NC(=O)[C@H](CC(=O)O)NC(=O)[C@H](CO)NC(=O)[C@@H](NC(=O)[C@](C)(Cc1ccccc1F)NC(=O)[C@@H](NC(=O)CNC(=O)[C@H](CCC(=O)O)NC(=O)C(C)(C)NC(=O)[C@@H](N)Cc1ccc(O)cc1)[C@@H](C)O)[C@@H](C)O)[C@@H](C)CC)[C@@H](C)CC)C(=O)N[C@@H](CCC(=O)O)C(=O)NCC(=O)NCC(=O)N1CCC[C@H]1C(=O)N[C@@H](CO)C(=O)N[C@@H](CO)C(=O)NCC(=O)N[C@@H](C)C(=O)N1CCC[C@H]1C(=O)N1CCC[C@H]1C(=O)N1CCC[C@H]1C(=O)N[C@@H](CO)C(N)=O` [Example 132], in experiment [1] (HEK293, read-out: hGIPR Emax, % ± SEM, percent of maximal response to GIP(1-42)NH2, 37° C., 0.1% bovine casein, arithmetic mean), the Emax was found to be 98.3 ± 1.68%. Further, the EC50 in experiment [1] (setting [6]) is 0.0208 nM; in experiment [2] (setting [6]), above 9950 nM; in experiment [3] (incubated at 37° C.), 0.182 nM.
